Measured values published in patent US20230346954A1, “N-1 BRANCHED IMIDAZOQUINOLINES, CONJUGATES THEREOF, AND METHODS” (3M INNOVATIVE PROPERTIES COMPANY, priority 2020, published 2023).

Experiments:
Format in all cases: cell-based
[1] = test system: Human peripheral blood mononuclear cells (PBMC); test: Cytokine induction in human cells (PBMC); conditions: 21-24 h, lowest concentration giving at least 2x negative control; for MEC to Induce Cytokine: IFN-alpha: ELISA; for MEC to Induce Cytokine: IFN-gamma / MEC to Induce Cytokine: TNF-alpha: multiplex bead assay
Procedure: Whole blood was obtained from healthy human donors and collected by venipuncture into vacutainer tubes or syringes containing EDTA. Human peripheral blood mononuclear cells (PBMC) were purified from the whole blood by density gradient centrifugation. Histopaque 1077 (15 mL, Sigma, St. Louis, MO) was transferred to 6×50 mL sterile polypropylene conical tubes. The Histopaque was overlayed with 15-25 mL of blood diluted 1:2 in Hank's Balanced Salts Solution (HBSS) (Gibco, Life Technologies, Grand Island, NY). The tubes were then centrifuged at 1370 revolutions per minute (rpm) for 30 min at 20° C., with no brake (400×g, GH 3.8A Rotor).
The interface (buffy coat) containing the PBMC was collected and placed in a new sterile 50 mL conical polypropylene centrifuge tube. The PBMC were mixed with an equal volume of HBSS (about 20 mL from the interface and about 20 mL of HBSS), and then centrifuged at 1090 rpm, 10 min, 20° C., with brake (270×g, GH 3.8A Rotor). After completing centrifugation, the cells were resuspended in 2-3 mL ACK Red blood cell lysis buffer (ammonium chloride potassium solution, Gibco, Life Technologies) and incubated for 2-5 min at 20° C. Next, HBSS (40 mL) was added to the cells, and the sample was centrifuged at 270×g for 10 min at 20° C. The supernatant was decanted, and the cell pellet was resuspended in 5 mL AIM V Medium (Gibco, Life Technologies). Cell aggregates and debris were removed by filtering the cell solution through a BD Falcon 70 micron nylon cell strainer (BD Biosciences, San Jose, CA).
The number of viable cells was determined by counting with a Miltenyi FACS instrument (Miltenyi Biotec Inc., San Diego, CA) or by using a hemacytometer. For determining cell viability with a hemacytometer, the cells were diluted 1/10 in 0.4% trypan blue and HBSS (specifically, 50 microliter of trypan blue+40 microliter of HBSS+10 microliter of cell solution were added to a microfuge tube and mixed). Ten microliters of the diluted cells were then applied to the hemacytometer, and the number of viable PBMC were determined by microscopy.
The PBMC sample was then resuspended in 96-well plates at a concentration of 8×10^5 cells/well in 0.1 mL of AIM-V medium. Each compound was solubilized in dimethyl sulfoxide (DMSO) to create a 3 mM stock solution. The stock solution was then further diluted with AIM-V medium to prepare the serial dilutions. The diluted compound (100 microliters) was then transferred to the PBMCs to produce testing sets with final compound concentrations of 30, 10, 3.3, 1.1, 0.37, 0.12, 0.04, 0.01 micromolar. The plates also had both positive and negative controls. The negative control wells contained only AIM-V medium with no example compound. The positive control wells contained a control set of imiquimod serially diluted to concentrations of 30, 10, 3.3, 1.1, 0.37, 0.12, 0.04, 0.01 micromolar. The concentrations used in the control set were selected to match the concentrations used in the testing set. The plates were then cultured at 37° C./5% CO2 for 21-24 h. Cell-free supernatants were harvested by centrifuging the 96-well plates at 2100 rpm, 23° C. for 10 min. Approximately 160 microliters of the supernatant was then stored in a NUNC 96-well plate, covered with the compression cap and stored at −80° C. until the cytokine analysis was done.
IFN-alpha cytokine levels (picograms/mL) were measured by ELISA (human IFN-alpha, pan specific, Mabtech, Cincinnati, OH). IFN-gamma and TNF-alpha levels (picograms/mL) were measured by multiplex bead assay (magnetic beads, R & D Systems, Minneapolis, MN) according to the manufacturer's instructions.
Specifically, the minimum effective concentration of each compound (micromolar) was determined as the lowest concentration of the compound that induced a measured cytokine response at a level ([…]) that was at least 2× greater than that observed with the negative control wells.

human TLR7 = biological target: T1, human TLR7 (Homo sapiens, UniProt Q9NYK1); test: TLR activation, HEK-BLUE-hTLR7 SEAP reporter cells; conditions: HEK-BLUE-hTLR7, 16-20 h; SEAP response at least 2x vehicle control
T1 construct: host or cells: HEK293 (HEK-BLUE-hTLR7)
T1 sequence (Q9NYK1 27-1049): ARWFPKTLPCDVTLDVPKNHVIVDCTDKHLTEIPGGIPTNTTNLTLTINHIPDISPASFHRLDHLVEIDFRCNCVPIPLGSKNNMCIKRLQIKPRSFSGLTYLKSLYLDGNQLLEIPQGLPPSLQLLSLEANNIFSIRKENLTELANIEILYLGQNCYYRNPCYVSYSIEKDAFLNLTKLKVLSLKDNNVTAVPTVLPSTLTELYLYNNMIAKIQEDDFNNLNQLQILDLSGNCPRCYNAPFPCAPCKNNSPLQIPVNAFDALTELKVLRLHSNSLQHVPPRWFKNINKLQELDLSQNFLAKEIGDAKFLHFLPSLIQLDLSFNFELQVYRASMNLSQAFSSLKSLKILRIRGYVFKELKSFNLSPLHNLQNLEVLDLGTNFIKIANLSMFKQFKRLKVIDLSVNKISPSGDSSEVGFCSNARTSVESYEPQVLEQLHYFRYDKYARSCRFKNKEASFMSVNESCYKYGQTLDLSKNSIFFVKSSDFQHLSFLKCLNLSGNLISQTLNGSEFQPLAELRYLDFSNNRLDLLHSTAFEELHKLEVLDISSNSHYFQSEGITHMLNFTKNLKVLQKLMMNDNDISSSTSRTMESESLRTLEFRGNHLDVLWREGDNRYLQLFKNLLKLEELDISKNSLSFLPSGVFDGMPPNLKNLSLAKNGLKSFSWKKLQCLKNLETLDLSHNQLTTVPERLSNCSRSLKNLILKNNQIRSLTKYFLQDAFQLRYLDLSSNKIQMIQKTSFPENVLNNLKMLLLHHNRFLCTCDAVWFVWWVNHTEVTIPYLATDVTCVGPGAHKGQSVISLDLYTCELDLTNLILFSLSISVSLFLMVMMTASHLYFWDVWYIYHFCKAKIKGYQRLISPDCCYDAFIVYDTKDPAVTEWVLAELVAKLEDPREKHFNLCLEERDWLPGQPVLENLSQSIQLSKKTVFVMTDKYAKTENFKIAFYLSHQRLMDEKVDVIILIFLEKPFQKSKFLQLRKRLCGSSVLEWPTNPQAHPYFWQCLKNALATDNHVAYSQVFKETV
Procedure: (§1) HEK-BLUE-hTLR7 or hTLR8 reporter cells were obtained from InvivoGen, San Diego, CA. According to the manufacturer's description, these reporter cells were prepared by co-transfection of HEK293 cells with an inducible secreted embryonic alkaline phosphatase (SEAP) reporter gene and either the human TLR7 or TLR8 gene. The SEAP reporter gene was placed under the control of an IFN-β minimal promoter fused to five NF-κB and AP-1-binding sites. In the presence of a TLR ligand, activation of NF-κB and AP-1 occurs, resulting in a corresponding increase in SEAP levels. […]
(§2) For each compound, hTLR7, hTLR8, and their respective null control HEK cells were screened. […] Cell culture supernatants containing the SEAP reporter were collected after an incubation period of 16-20 h in a cell culture incubator (37° C. and 5% CO2), and either analyzed immediately or stored at −80° C. SEAP levels were measured using the colorimetric enzyme assay (QUANTI-BLUE (InvivoGen) according to manufacturer's instructions.
(§3) Specifically, the minimum effective concentration of each compound (micromolar) was determined as the lowest concentration of the compound that produced a SEAP expression response at least 2× greater than that observed with the vehicle control wells.

human TLR8 = biological target: T2, human TLR8 (Homo sapiens, UniProt Q9NR97); test: TLR activation, HEK-BLUE-hTLR8 SEAP reporter cells; conditions: HEK-BLUE-hTLR8, 16-20 h; SEAP response at least 2x vehicle control
T2 construct: host or cells: HEK293 (HEK-BLUE-hTLR8)
T2 sequence (Q9NR97 27-1041): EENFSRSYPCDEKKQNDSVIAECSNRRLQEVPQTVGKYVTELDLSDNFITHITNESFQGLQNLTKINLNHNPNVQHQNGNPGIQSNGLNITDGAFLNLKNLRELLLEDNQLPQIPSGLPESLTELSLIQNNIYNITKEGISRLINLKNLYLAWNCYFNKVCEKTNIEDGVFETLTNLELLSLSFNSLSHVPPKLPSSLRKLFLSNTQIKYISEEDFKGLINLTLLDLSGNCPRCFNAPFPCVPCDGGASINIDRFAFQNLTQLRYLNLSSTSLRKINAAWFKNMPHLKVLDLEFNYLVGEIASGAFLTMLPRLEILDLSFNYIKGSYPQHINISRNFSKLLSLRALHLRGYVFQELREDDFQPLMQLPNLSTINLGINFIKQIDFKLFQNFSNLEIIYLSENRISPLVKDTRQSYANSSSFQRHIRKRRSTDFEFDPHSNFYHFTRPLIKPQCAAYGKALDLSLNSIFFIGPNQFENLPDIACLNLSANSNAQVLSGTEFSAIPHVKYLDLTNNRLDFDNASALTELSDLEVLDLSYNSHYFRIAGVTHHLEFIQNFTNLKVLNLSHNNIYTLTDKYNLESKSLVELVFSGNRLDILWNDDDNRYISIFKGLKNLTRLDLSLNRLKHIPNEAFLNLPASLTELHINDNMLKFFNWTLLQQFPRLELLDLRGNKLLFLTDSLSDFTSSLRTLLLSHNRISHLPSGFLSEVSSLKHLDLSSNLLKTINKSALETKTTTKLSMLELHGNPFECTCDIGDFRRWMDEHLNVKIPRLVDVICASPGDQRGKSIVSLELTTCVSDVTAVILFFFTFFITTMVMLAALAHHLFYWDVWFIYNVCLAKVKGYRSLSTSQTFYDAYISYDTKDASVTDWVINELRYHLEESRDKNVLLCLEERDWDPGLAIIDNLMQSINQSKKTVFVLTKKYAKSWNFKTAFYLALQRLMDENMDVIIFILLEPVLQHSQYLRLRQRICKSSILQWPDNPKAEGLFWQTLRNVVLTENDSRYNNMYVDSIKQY
Procedure: as §1, §2, §3

CCOC[C@H](Cc1ccc(OCCN)cc1)n1cnc2c(N)nc3ccccc3c21 [Example 2, (S)-1-(1-(4-(2-aminoethoxy)phenyl)-3-ethoxypropan-2-yl)-1H-imidazo[4,5-c]quinolin-4-amine]
MEC to Induce Cytokine: IFN-alpha [1]: ≤0.01 µM | MEC to Induce Cytokine: IFN-gamma [1]: ≤0.01 µM | MEC to Induce Cytokine: TNF-alpha [1]: ≤0.01 µM | MEC to Produce TLR Activation: TLR 7 (human TLR7): ≤0.01 µM | MEC to Produce TLR Activation: TLR 8 (human TLR8): 1.1 µM

CCOC[C@H](Cc1ccc(OCCO)cc1)n1cnc2c(N)nc3ccccc3c21 [Example 1, (S)-2-(4-(2-(4-amino-1H-imidazo[4,5-c]quinolin-1-yl)-3-ethoxypropyl)phenoxy)ethan-1-ol]
MEC to Induce Cytokine: IFN-alpha [1]: ≤0.01 µM | MEC to Induce Cytokine: IFN-gamma [1]: ≤0.01 µM | MEC to Induce Cytokine: TNF-alpha [1]: ≤0.01 µM | MEC to Produce TLR Activation: TLR 7 (human TLR7): ≤0.01 µM | MEC to Produce TLR Activation: TLR 8 (human TLR8): 1.1 µM
